The results in this text go back to patent US11033600B2, “Protease transition state inhibitor prodrugs” (priority 2016, dated 2021).

The target in assay [1] is norovirus 3CL protease (NV 3CLpro) (Norovirus, UniProt Q83883). Nature of the assay: FRET protease assay (3CL protease), enzyme inhibition. The format is biochemical. The procedure:
FRET protease assays. The FRET protease assay (3CL protease) was performed by preparing stock solutions of the substrate (Edans-DFHLQ/GP-Dabcyl, SEQ ID NO:1) and inhibitor in DMSO and diluting into assay buffer which was comprised of 20 mM HEPES buffer, pH 8, containing NaCl (200 mM), 0.4 mM EDTA, glycerol (60%), and 6 mM dithiothreitol (DTT). The protease was mixed with serial dilutions of each compound up to 100 μM or with DMSO in 25 μL of assay buffer and incubated at 37° C. for 30 min, followed by the addition of 25 μL of assay buffer containing substrate. Fluorescence readings were obtained using an excitation wavelength of 360 nm and an emission wavelength of 460 nm on a fluorescence microplate reader (FLx800; Biotec, Winoosk, Vt.) 1 h following the addition of substrate. Relative fluorescence units (RFU) were determined by subtracting background values (substrate-containing well without protease) from the raw fluorescence values. The dose-dependent FRET inhibition curves were fitted with a variable slope by using GraphPad Prism software (GraphPad, La Jolla, Calif.) in order to determine the IC50 values of the inhibitors.

The subject of assay [2] is NV in replicon harboring cells (HG23 cells). Nature of the assay: Cell-based assay: virus replication in NV replicon harboring cells (HG23 cells), qRT-PCR. More on the design: species or system norovirus (NV). The procedure:
The effects of each inhibitor on virus replication were examined against NV in the NV replicon harboring cells (HG23 cells). Briefly, confluent and semi-confluent HG23 cells were incubated with medium containing DMSO (<0.1%) or each compound (up to 200 uM) for 48 h. After the incubation, total RNA was extracted and viral genome was quantitated with real-time quantitative RT-PCR (qRT-PCR). The EC50 values were determined by GraphPadPrism software.
In general terms: A replicon is a self-replicating genome or part of one, used to study replication in cells.

Setting [3] is: Table 1, ester prodrugs, average of at least two determinations, read-out: IC50 (50% inhibitory concentration in the enzyme assay).
[4] abbreviates: Table 1, ester prodrugs, HG23 cells, 48 h, read-out: EC50 (50% effective concentration in cell culture).
Setting [5] is: Table 2, carbamate prodrugs, read-out: IC50.
[6] abbreviates: Table 2, carbamate prodrugs, HG23 cells, 48 h, read-out: EC50.
[7] abbreviates: Norovirus, HG23, given in M, read-out: EC50.

SMILES strings stand for the structures. Read-outs that look alike come from different tables or passages of the source.

Chain of norovirus 3CL protease (NV 3CLpro) (Q83883 1101-1281): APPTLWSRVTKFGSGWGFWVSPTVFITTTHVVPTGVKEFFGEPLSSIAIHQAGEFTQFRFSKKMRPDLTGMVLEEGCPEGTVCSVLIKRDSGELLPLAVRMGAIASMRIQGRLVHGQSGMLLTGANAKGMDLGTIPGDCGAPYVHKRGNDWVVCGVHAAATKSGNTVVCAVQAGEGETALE

Turning to `CC(C)C[C@H](NC(=O)OCc1ccccc1)C(=O)N[C@@H](C[C@@H]1CCNC1=O)C(OC(=O)c1ccccc1)S(=O)(=O)O` (stereo partly drawn) [Compound 7, (5S,8S)-5-Isobutyl-3,6,11-trioxo-8-(((S)-2-oxopyrrolidin-3-yl)methyl)-1,11-diphenyl-2,10-dioxa-4,7-diazaundecane-9-sulfonate], the IC50 in assay [1] (setting [3]) was 7.2 µM. Also, the EC50 in assay [2] (setting [4]) was 0.8 µM.
The like results for `O=C(N[C@@H](CC1CCCCC1)C(=O)N[C@@H](C[C@@H]1CCNC1=O)C(OC(=O)C1CCCCC1)S(=O)(=O)O)OCc1ccccc1` (stereo partly drawn) [Compound 16, (5S,8S)-11-Cyclohexyl-5-(cyclohexylmethyl)-3,6,11-trioxo-8-(((S)-2-oxopyrrolidin-3-yl)methyl)-1-phenyl-2,10-dioxa-4,7-diazaundecane-9-sulfonate] were, in that order, 0.6 µM and 0.06 µM.
Take `COC(=O)C(NC(=O)OC([C@H](C[C@@H]1CCNC1=O)NC(=O)[C@H](CC(C)C)NC(=O)OCc1ccccc1)S(=O)(=O)O)C(C)C` (stereo partly drawn) [Compound 20, (5 S,8S)-5-Isobutyl-13-isopropyl-3,6,11,14-tetraoxo-8-(((S)-2-oxopyrrolidin-3-yl)methyl)-1-phenyl-2,10,15-trioxa-4,7,12-triazahexadecane-9-sulfonate]: in assay [1] (setting [5]), the IC50 is 2.5 µM. The EC50 in assay [2] (setting [6]) was 0.4 µM.
`CC(C)C[C@H](NC(=O)OCc1ccccc1)C(=O)N[C@@H](C[C@@H]1CCNC1=O)C(O)S(=O)(=O)O` (some centres unmarked) [Compound 24, reference compound]: the IC50 in assay [1] (in μM, read-out: IC50) stood at 0.8 µM. Besides, the EC50 in assay [2] (setting [7]) was 0.3 µM.
`CCCCCCCC(=O)OC([C@H](C[C@@H]1CCNC1=O)NC(=O)[C@H](CC1CCCCC1)NC(=O)OCc1cccc(Cl)c1)S(=O)(=O)O` (stereo partly drawn) [Compound 12, (5 S, 8S)-1-(3-Chlorophenyl)-5-(cyclohexylmethyl)-3,6,11-trioxo-8-(((S)-2-oxopyrrolidin-3-yl)methyl)-2,10-dioxa-4,7-diazaoctadecane-9-sulfonate]: the IC50 in assay [1] (setting [3]) came out at 0.9 µM. For the same molecule, in assay [2] (setting [4]), the EC50 was 0.03 µM.
The like results for `CCC(=O)OC([C@H](C[C@@H]1CCNC1=O)NC(=O)[C@H](CC(C)C)NC(=O)OCc1ccccc1)S(=O)(=O)O` (stereo partly drawn) [Compound 2, (5S,8S)-5-Isobutyl-3,6,11-trioxo-8-(((S)-2-oxopyrrolidin-3-yl)methyl)-1-phenyl-2,10-dioxa-4,7-diazatridecane-9-sulfonate] were, in that order, 7.5 µM and 0.7 µM.
Consider `CC(C)C(=O)OC([C@H](C[C@@H]1CCNC1=O)NC(=O)[C@H](CC1CCCCC1)NC(=O)OCc1cccc(Cl)c1)S(=O)(=O)O` (stereo partly drawn) [Compound 13, (5 S, 8S)-1-(3-Chlorophenyl)-5-(cyclohexylmethyl)-12-methyl-3,6,11-trioxo-8-(((S)-2-oxopyrrolidin-3-yl)methyl)-2,10-dioxa-4,7-diazatridecane-9-sulfonate], for which the IC50 in assay [1] (setting [3]) came out at 0.3 µM. Besides, in assay [2] (setting [4]), the EC50 was determined as 0.03 µM.
On the same counts, the results for `CCCC(=O)OC([C@H](C[C@@H]1CCNC1=O)NC(=O)[C@H](CC(C)C)NC(=O)OCc1ccccc1)S(=O)(=O)O` (stereo partly drawn) [Compound 3, (5S,8S)-5-Isobutyl-3,6,11-trioxo-8-(((S)-2-oxopyrrolidin-3-yl)methyl)-1-phenyl-2,10-dioxa-4,7-diazatetradecane-9-sulfonate] are 3.7 µM and 1.3 µM.
As to `CCCCCCCC(=O)OC([C@H](C[C@@H]1CCNC1=O)NC(=O)[C@H](CC(C)C)NC(=O)OCc1ccccc1)S(=O)(=O)O` (stereo partly drawn) [Compound 6, (5S,8S)-5-Isobutyl-3,6,11-trioxo-8-(((S)-2-oxopyrrolidin-3-yl)methyl)-1-phenyl-2,10-dioxa-4,7-diazaoctadecane-9-sulfonate], the IC50 in assay [1] (setting [3]) is 3 µM. Moreover, in assay [2] (setting [4]), the EC50 is 0.5 µM.
In the case of `COC(=O)C(C)NC(=O)OC([C@H](C[C@@H]1CCNC1=O)NC(=O)[C@H](CC1CCCCC1)NC(=O)OCc1cccc(Cl)c1)S(=O)(=O)O` (stereo partly drawn) [Compound 21, (5 S, 8S)-1-(3-Chlorophenyl)-5-(cyclohexylmethyl)-13-methyl-3,6,11,14-tetraoxo-8-(((S)-2-oxopyrrolidin-3-yl)methyl)-2,10,15-trioxa-4,7,12-triazahexadecane-9-sulfonate], in assay [1] (setting [5]), the IC50 is 0.8 µM. Besides, the EC50 in assay [2] (setting [6]) was found to be 0.025 µM.
`CC(C)C[C@H](NC(=O)OCc1ccccc1)C(=O)N[C@@H](C[C@@H]1CCNC1=O)C(OC(=O)C(C)C)S(=O)(=O)O` (stereo partly drawn) [Compound 8, (5S,8S)-5-Isobutyl-12-methyl-3,6,11-trioxo-8-(((S)-2-oxopyrrolidin-3-yl)methyl)-1-phenyl-2,10-dioxa-4,7-diazatridecane-9-sulfonate]: in assay [1] (setting [3]), the IC50 turned out to be 3.5 µM. Moreover, the EC50 in assay [2] (setting [4]) is 0.3 µM.
For `CC(=O)OC([C@H](C[C@@H]1CCNC1=O)NC(=O)[C@H](CC1CCCCC1)NC(=O)OCc1cccc(Cl)c1)S(=O)(=O)O` (stereo partly drawn) [Compound 9, (5 S, 8S)-1-(3-Chlorophenyl)-5-(cyclohexylmethyl)-3,6,11-trioxo-8-(((S)-2-oxopyrrolidin-3-yl)methyl)-2,10-dioxa-4,7-diazadodecane-9-sulfonate], the IC50 in assay [1] (setting [3]) stood at 0.08 µM. In assay [2] (setting [4]), the EC50 is 0.03 µM.
As for `COC(=O)C(C)NC(=O)OC([C@H](C[C@@H]1CCNC1=O)NC(=O)[C@H](CC1CCCCC1)NC(=O)OCc1ccccc1)S(=O)(=O)O` (stereo partly drawn) [Compound 23, (5 S,8S)-5-(Cyclohexylmethyl)-13-methyl-3,6,11,14-tetraoxo-8-(((S)-2-oxopyrrolidin-3-yl)methyl)-1-phenyl-2,10,15-trioxa-4,7,12-triazahexadecane-9-sulfonate], the IC50 in assay [1] (setting [5]) is 10.2 µM. In assay [2] (setting [6]), the EC50 came out at 0.2 µM.
In the case of `CC(=O)OC([C@H](C[C@@H]1CCNC1=O)NC(=O)[C@H](CC1CCCCC1)NC(=O)OCc1ccccc1)S(=O)(=O)O` (stereo partly drawn) [Compound 15, (5S,8S)-5-(Cyclohexylmethyl)-3,6,11-trioxo-8-(((S)-2-oxopyrrolidin-3-yl)methyl)-1-phenyl-2,10-dioxa-4,7-diazadodecane-9-sulfonate], in assay [1] (setting [3]), the IC50 was 7.5 µM. The EC50 in assay [2] (setting [4]) is 0.2 µM.
On the same counts, the results for `CCCCCCOC(=O)OC([C@H](CC1CCNC1=O)NC(=O)[C@H](CC1CCCCC1)NC(=O)OCc1cccc(Cl)c1)S(=O)(=O)O` (some centres unmarked) [Compound 17, (5 S, 8S)-1-(3-chlorophenyl)-5-(cyclohexylmethyl)-3,6,11-trioxo-8-((2-oxo-pyrrolidin-3-yl)methyl)-2,10,12-trioxa-4,7-diazaoctadecane-9-sulfonate] are 0.8 µM and 0.025 µM.
For the molecule `O=C(N[C@@H](CC1CCCCC1)C(=O)N[C@@H](C[C@@H]1CCNC1=O)C(O)S(=O)(=O)O)OCc1cccc(Cl)c1` (some centres unmarked) [Compound 26, reference compound], the IC50 in assay [1] (in μM, read-out: IC50) turned out to be 0.1 µM. In addition, the EC50 in assay [2] (setting [7]) stood at 0.02 µM.
On to `CCCCC(=O)OC([C@H](C[C@@H]1CCNC1=O)NC(=O)[C@H](CC(C)C)NC(=O)OCc1ccccc1)S(=O)(=O)O` (stereo partly drawn) [Compound 4, (5S,8S)-5-Isobutyl-3,6,11-trioxo-8-(((S)-2-oxopyrrolidin-3-yl)methyl)-1-phenyl-2,10-dioxa-4,7-diazapentadecane-9-sulfonate], for which the IC50 in assay [1] (setting [3]) stood at 3.5 µM. Also, in assay [2] (setting [4]), the EC50 worked out at 1.4 µM.
For the molecule `CC(=O)OC([C@H](C[C@@H]1CCNC1=O)NC(=O)[C@H](CC(C)C)NC(=O)OCc1ccccc1)S(=O)(=O)O` (stereo partly drawn) [Compound 1, (5S,8S)-5-Isobutyl-3,6,11-trioxo-8-(((S)-2-oxopyrrolidin-3-yl)methyl)-1-phenyl-2,10-dioxa-4,7-diazadodecane-9-sulfonate], the IC50 in assay [1] (setting [3]) worked out at 10.5 µM. Moreover, the EC50 in assay [2] (setting [4]) was determined as 0.6 µM.
For the molecule `COC(=O)CNC(=O)OC([C@H](C[C@@H]1CCNC1=O)NC(=O)[C@H](CC(C)C)NC(=O)OCc1ccccc1)S(=O)(=O)O` (stereo partly drawn) [Compound 18, (5 S,8S)-5-Isobutyl-3,6,11,14-tetraoxo-8-(((S)-2-oxopyrrolidin-3-yl)methyl)-1-phenyl-2,10,15-trioxa-4,7,12-triazahexadecane-9-sulfonate], the IC50 in assay [1] (setting [5]) is 3.1 µM. In assay [2] (setting [6]), the EC50 worked out at 0.4 µM.
As for `COC(=O)C(C)NC(=O)OC([C@H](C[C@@H]1CCNC1=O)NC(=O)[C@H](CC(C)C)NC(=O)OCc1ccccc1)S(=O)(=O)O` (stereo partly drawn) [Compound 19, (5 S,8S)-5-Isobutyl-13-methyl-3,6,11,14-tetraoxo-8-(((S)-2-oxopyrrolidin-3-yl)methyl)-1-phenyl-2,10,15-trioxa-4,7,12-triazahexadecane-9-sulfonate], the IC50 in assay [1] (setting [5]) stood at 1.8 µM. Moreover, the EC50 in assay [2] (setting [6]) stood at 0.3 µM.
`O=C[C@H](C[C@@H]1CCNC1=O)NC(=O)[C@H](CC1CCCCC1)NC(=O)OCc1cccc(Cl)c1` [Compound 25, reference compound]: in assay [2] (Norovirus, HG23, in μM, read-out: EC50), the EC50 was found to be 0.02 µM.
